Assay results: US5223526A, “Pyrazole carboxanilide fungicides and use” (Monsanto Company, priority 1992, dated 1993)

Key:
succinate dehydrogenase = molecular target: T1, succinate dehydrogenase (Botrytis cinerea, UniProt A0A384J5E4+A0A384J8V8+A0A384JHJ5); experiment: Enzyme inhibition: succinate dehydrogenase activity in Botrytis cinerea mitochondria (DCPIP reduction); type: biochemical; conditions: concentration required to inhibit the rate of DCPIP reduction by 50%; Botrytis cinerea isolate Nick mitochondria; read-out: I50 (μM conc.)
T1 construct: succinate-DCPIP reductase assay with KCN
How it was run: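 Crude mitochondria from Botrytis cinerea isolate Nick mycelia, prepared by bead-beating and differential centrifugation, started reactions. SDH activity followed as DCPIP reduction at 600 nm in 50 mM K-phosphate pH 7.2 with 1 mM KCN, 45 μM DCPIP, 17 mM succinate, 1% acetone. I50 from semilog inhibition plots, corrected for succinate-free rates.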

Botrytis cinerea [1] = experiment: Vine grey mold (grape berries); type: in vivo; conditions: average of six berries, 7-10 days; for pest or weed control at 50 ppm: grape berries treated with 50 ppm, read-out: % DISEASE CONTROL 50 ppm; for pest or weed control at 200 ppm: grape berries treated with 200 ppm, read-out: % DISEASE CONTROL 200 ppm
How it was run: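 Preventive berry test: compound at 50 or 200 ppm (acetone/water, 0.05% Tween 20) applied one day before inoculation with 10^6 spores/mL Botrytis conidia. After 7-10 days at 20 °C under 12 h light, infected surface area rated; disease control expressed as percent reduction from control mean; repeated-test values averaged.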

Botrytis cinerea [2] = experiment: Eggplant grey mold; type: in vivo; design: scale not given here; conditions: inoculated 24 h later, rated after 3-4 days; for Disease Control Rating at 20 ppm: eggplant sprayed with 20 ppm; for Disease Control Rating at 100 ppm: eggplant sprayed with 100 ppm; for Disease Control Rating at 500 ppm: eggplant sprayed with 500 ppm
How it was run: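 Protective test: compound formulations (2:3 acetone:water, 0.5% Tween 20; 500, 100 or 20 ppm) sprayed on 14-18-day-old plants, with spore inoculum (4×10^6 spore/mL) applied a day later. Disease control rated on Botrytis lesions after 3-4 days at 23 °C and 100% humidity.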

Rhizoctonia solani = experiment: Rice sheath blight; type: in vivo; design: scale not given here; conditions: inoculated two days later, rated after 7 days, average of five plants; for Disease Control Rating at 0.02 mg/mL: foliage and soil sprayed with 0.02 mg/mL; for Disease Control Rating at 0.1 mg/mL: foliage and soil sprayed with 0.1 mg/mL; for Disease Control Rating at 0.5 mg/mL: foliage and soil sprayed with 0.5 mg/mL
How it was run: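 Rice plants 11–15 days old had foliage and soil sprayed with 0.5, 0.1 or 0.02 mg/mL Compound A in water/acetone/Tween 20, then kept in flooded trays. Two days later, rice-grain Rhizoctonia solani inoculum went to plant bases; disease control scored versus untreated after 7 days at 25 °C, high humidity, averaging five plants.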

T1 sequence (A0A384J5E4 1-300): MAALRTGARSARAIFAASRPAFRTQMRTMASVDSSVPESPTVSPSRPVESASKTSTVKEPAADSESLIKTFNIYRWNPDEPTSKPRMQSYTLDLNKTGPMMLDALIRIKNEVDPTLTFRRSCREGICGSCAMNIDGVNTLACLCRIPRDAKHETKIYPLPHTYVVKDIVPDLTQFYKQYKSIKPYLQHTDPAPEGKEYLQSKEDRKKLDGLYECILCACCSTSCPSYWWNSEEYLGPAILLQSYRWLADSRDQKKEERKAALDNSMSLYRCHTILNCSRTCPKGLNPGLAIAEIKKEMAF
T1 sequence (A0A384J8V8 1-189): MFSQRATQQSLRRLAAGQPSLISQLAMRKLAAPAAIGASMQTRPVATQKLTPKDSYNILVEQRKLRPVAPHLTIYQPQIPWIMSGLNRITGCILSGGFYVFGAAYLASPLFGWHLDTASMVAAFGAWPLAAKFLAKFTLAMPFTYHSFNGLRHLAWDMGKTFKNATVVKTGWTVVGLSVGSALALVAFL
T1 sequence (A0A384JHJ5 1-192): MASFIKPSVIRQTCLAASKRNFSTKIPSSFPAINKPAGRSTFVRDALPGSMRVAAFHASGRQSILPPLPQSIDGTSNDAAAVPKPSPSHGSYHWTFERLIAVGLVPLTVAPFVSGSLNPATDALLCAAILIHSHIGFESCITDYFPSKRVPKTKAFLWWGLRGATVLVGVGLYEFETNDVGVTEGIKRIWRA
T1 sequence (A0A384K456 1-647 partner): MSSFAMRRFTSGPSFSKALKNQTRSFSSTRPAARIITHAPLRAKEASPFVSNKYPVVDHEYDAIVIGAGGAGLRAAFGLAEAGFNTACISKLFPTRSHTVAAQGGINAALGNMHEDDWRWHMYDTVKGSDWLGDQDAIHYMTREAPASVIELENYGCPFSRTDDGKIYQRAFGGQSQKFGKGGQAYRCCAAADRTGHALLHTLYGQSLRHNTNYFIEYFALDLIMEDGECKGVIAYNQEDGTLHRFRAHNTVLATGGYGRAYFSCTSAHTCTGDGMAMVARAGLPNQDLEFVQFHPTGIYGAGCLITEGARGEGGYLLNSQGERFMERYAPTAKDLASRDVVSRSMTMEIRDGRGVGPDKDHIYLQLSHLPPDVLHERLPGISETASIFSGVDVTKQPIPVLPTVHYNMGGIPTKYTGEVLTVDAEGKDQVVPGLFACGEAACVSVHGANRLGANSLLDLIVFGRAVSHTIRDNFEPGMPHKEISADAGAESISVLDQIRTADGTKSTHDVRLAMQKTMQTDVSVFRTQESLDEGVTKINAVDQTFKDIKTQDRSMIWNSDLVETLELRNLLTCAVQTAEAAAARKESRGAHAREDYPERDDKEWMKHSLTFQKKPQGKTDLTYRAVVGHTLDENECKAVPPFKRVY

Row | Structure (SMILES) | IC50 (succinate dehydrogenase) | pest or weed control at 50 ppm (Botrytis cinerea [1]) | pest or weed control at 200 ppm (Botrytis cinerea [1]) | Disease Control Rating at 20 ppm (Botrytis cinerea [2]) | Disease Control Rating at 100 ppm (Botrytis cinerea [2]) | Disease Control Rating at 500 ppm (Botrytis cinerea [2]) | Disease Control Rating at 0.02 mg/mL (Rhizoctonia solani) | Disease Control Rating at 0.1 mg/mL (Rhizoctonia solani) | Disease Control Rating at 0.5 mg/mL (Rhizoctonia solani)
1 | Cn1cc(C(=O)Nc2ccccc2C2CC(C)(C)CC(C)(C)C2)c(C(F)F)n1 [Example 140, 1H-pyrazole-4-carboxamide, 3-(difluoromethyl)-1-methyl-N-[2-(3,3,5,5-tetramethylcyclohexyl)-phenyl]-] | 0.039 µM | 16% | 12% | 0 | 1 | 1 | 0 | 2 | 3
2 | Cc1nn(C)cc1C(=O)Nc1ccccc1[C@@H]1C[C@H]2CC[C@@H]1C2 (relative stereo) [Example 71, 1H-pyrazole-4-carboxamide, N-(2-bicyclo[2.2.1]hept-2-ylphenyl)-1,3-dimethyl-, exo-] | 0.046 µM | 25% | 57% | – | – | 0 | 1 | 3 | 3
3 | Cn1cc(C(=O)Nc2ccccc2[C@@H]2C[C@H]3CC[C@@H]2C3)c(C(F)(F)F)n1 (relative stereo) [Example 27, 1H-pyrazole-4-carboxamide, N-(2-bicyclo[2.2.1]hept-2-ylphenyl)-1-methyl-3-(trifluoromethyl)-, exo-] | 0.0048 µM | 80% | 74% | 0 | 1 | 2 | – | – | 0
4 | CC1C=C(c2ccccc2NC(=O)c2cn(C)nc2C(F)(F)F)CC1 (stereo not shown) [Example 148, 1H-pyrazole-4-carboxamide, N-[2-(3-methyl-1-cyclopenten-1-yl)phenyl]-1-methyl-3-(trifluoromethyl)-] | 0.027 µM | 37% | 99% | 0 | 2 | 2 | – | – | 3
5 | Cn1cc(C(=O)Nc2ccccc2CC2CCCC2)c(C(F)(F)F)n1 [Example 142, 1H-pyrazole-4-carboxamide, N-[2-(cyclopentylmethyl)phenyl]-1-methyl-3-(trifluoromethyl)-] | 0.22 µM | 0% | 18% | 0 | 1 | 1 | – | – | 3
6 | Cn1cc(C(=O)Nc2ccccc2C2CCCCCCC2)c(I)n1 [Example 68, 1H-pyrazole-4-carboxamide, N-(2-cyclooctylphenyl)-3-iodo-1-methy1-] | 0.0037 µM | 78% | 89% | – | – | 1 | 2 | 3 | 3
7 | Cn1cc(C(=O)Nc2ccccc2OC2CCCCC2)c(C(F)F)n1 [Example 22, 1H-pyrazole-4-carboxamide, N-[2-(cyclohexyloxy)phenyl]-3-(difluoromethyl)-1-methyl-] | 0.0071 µM | 24% | 22% | – | – | 0 | – | – | 0
8 | Cn1cc(C(=O)Nc2ccccc2OCCC2CCCC2)c(C(F)(F)F)n1 [Example 55, 1H-pyrazole-4-carboxamide, N-[2-(2-cyclopentylethoxy)phenyl]-1-methyl-3-(trifluoromethyl)-] | 0.027 µM | 11% | 0% | – | – | 0 | – | – | 0
9 | Cc1cccc(NC(=O)c2cn(C)nc2C(F)(F)F)c1C1CCCCC1 [Example 19, 1H-pyrazole-4-carboxamide, N-(2-cyclohexyl-3-methylphenyl)-1-methyl-3-(trifluoromethyl)-] | 0.028 µM | 32% | 52% | 1 | 2 | 3 | 1 | 3 | 3
10 | Cn1nc(C(F)(F)F)c(C(=O)Nc2ccccc2[C@@H]2C[C@H]3CC[C@@H]2C3)c1F (relative stereo) [Example 85, 1H-pyrazole-4-Carboxamide, N-(2-bicyclo[2.2.1]hept-2-ylphenyl)-5-fluoro-1-methyl-3-(trifluoromethyl)-, exo-] | 0.01 µM | 28% | 99% | 0 | 1 | 2 | 1 | 3 | 3
11 | Cn1cc(C(=O)Nc2ccccc2[C@@H]2C[C@H]3CC[C@@H]2C3)c(Cl)n1 (relative stereo) [Example 52, 1H-pyrazole-4-carboxamide, N-(2-bicyclo[2.2.1]hept-2-ylphenyl)-3-chloro-1-methyl-, exo-] | 0.049 µM | 19% | 30% | – | – | 0 | 0 | 2 | 2
12 | C[C@@H]1CCC[C@@H](C)C1Oc1ccccc1NC(=O)c1cn(C)nc1C(F)(F)F (relative stereo) [Example 75, 1H-pyrazole-4-carboxamide, 1-methyl-N-[2-[(2,6-dimethylcyclohexyl)oxy]phenyl]-3-(trifluoromethyl)-, (1alpha,2alpha,6beta)-] | 0.013 µM | 6% | 0% | – | – | 0 | – | – | 0
13 | Cn1cc(C(=O)Nc2ccccc2OCC2CCCC2)c(C(F)F)n1 [Example 46, 1H-pyrazole-4-carboxamide, N-[2-(cyclopentylmethoxy)phenyl]-3-(difluoromethyl)-1-methyl-] | 0.096 µM | 1% | 0% | – | – | 0 | 2 | 3 | 3
14 | Cc1nn(C)cc1C(=O)Nc1ccccc1C1CCCC1 [Example 6, 1H-pyrazole-4-carboxamide, N-(2-cyclopentylphenyl)-1,3-dimethyl-] | 0.25 µM | 0% | 20% | – | – | 1 | 0 | 0 | 1
15 | Cn1cc(C(=O)Nc2ccccc2C2CCCC2)c(C(F)(F)F)n1 [Example 8, 1H-pyrazole-4-carboxamide, N-(2-cyclopentylphenyl)-1-methyl-3-(trifluoromethyl)-] | 0.016 µM | 37% | 83% | – | – | 0 | – | – | 0
